Test results published in patent publication US20070032477A1, “Pteridine derivatives useful for making pharmaceutical compositions” (priority 2003, published 2007).

test system: mixed lymphocyte reaction (PBMC with allogeneic PBMC or Eppstein-Barr Virus-transformed human B cells as stimulator cells); assay: Mixed lymphocyte reaction (MLR) assay; format: cell-based; conditions: lowest concentration giving 50% suppression of the MLR; [3H]-thymidine
Experimental: Pteridine derivatives were first dissolved (10 mM) in dimethylsulfoxide (hereinafter referred as DMSO) and further diluted in culture medium before use for the following in vitro experiments. The commercially available culture medium consisted of RPMI-1640+10% foetal calf serum (FCS). Some pteridine derivatives described in the previous examples (as indicated in table 1) were tested in the following mixed lymphocyte reaction (MLR) assay.
Peripheral blood mononuclear cells (hereinafter referred as PBMC) were isolated from heparinized peripheral blood by density gradient centrifugation over Lymphoprep (Nycomed, Maorstua, Norway). Allogeneic PBMC or Eppstein-Barr Virus-transformed human B cells [commercially available under the trade name RPM11788 (ATCC name CCL156)] which strongly express B7-1 and B7-2 antigens were used as stimulator cells after irradiation with 30 Gy. MLR was performed in triplicate wells. After 5 days incubation at 37° C., 1 μCi [^3H]-thymidine was added to each cup. After a further 16 hours incubation, cells were harvested and counted in a […]. Inhibition of proliferation by a compound (drug) described in some of the previous examples was counted using the formula: [formula] wherein cpm is the thymidine count per minute. The MLR assay is regarded by those skilled in the art as an in vitro analogue of the transplant rejection since it is based on the recognition of allogeneic major histocompatibility antigens on the stimulator leukocytes, by responding lymphocytes.

In order of falling IC50:
1. COc1ccc(-c2cnc3nc(N)nc(N4CCN(C(=O)[C@@H](N)CC(N)=O)CC4)c3n2)cc1OC [Example 111, 2-amino-4-[N-[2-(S),4-diamino-4-oxobutanoyl]-piperazin-1-yl]-6-(3,4-dimethoxyphenyl)pteridine]  8800 nM
2. CC(=O)N1CCN(c2nc(N)nc3ncc(-c4ccc(Cl)cc4)nc23)CC1 [Example 58, 2-amino-4-(N-acetylpiperazin-1-yl)-6-(4-chloro-phenyl)pteridine]  7600 nM
3. COc1ccc(-c2cnc3nc(N)nc(N4CCN(Cc5ccc(F)cc5)CC4)c3n2)cc1OC [Example 138, 2-amino-4-((4-fluorobenzyl)piperazin-1-yl)-6-(3,4-dimethoxyphenyl)pteridine]  6000 nM
4. CC(=O)N1CCN(c2nc(N)nc3ncc(-c4ccccc4)nc23)CC1 [Example 55, 2-amino-4-(N-acetylpiperazin-1-yl)-6-phenyl-pteridine]  5100 nM
5. COc1cc(-c2cnc3nc(N)nc(N4CCN(c5ccc(C)cc5)CC4)c3n2)ccc1OC(C)C [Example 208]  4400 nM
6. 2-amino-4-(1-(2-imidazol-1-yl-ethyl-piperazine)-6-(3,4-dimethoxyphenyl)pteridine [Example 155]  3600 nM
7. COCCN1CCN(c2nc(N)nc3ncc(-c4ccc(OC)c(OC)c4)nc23)CC1 [Example 122, 2-amino-4-(1-(2-methoxyethyl)piperazino)-6-(3,4-dimethoxyphenyl)pteridine]  800 nM
8. COCC(=O)N1CCN(c2nc(N)nc3ncc(-c4ccc(OC)c(OC)c4)nc23)CC1 [Example 41, 2-amino-4-[(N-methoxyacetyl)-piperazin-1-yl]-6-(3,4-dimethoxyphenyl)pteridine]  500 nM
9. COc1ccc(-c2cnc3nc(N)nc(N4CCN(c5cccc(C)c5)CC4)c3n2)cc1OC [Example 175, 2-amino-6-(3,4-dimethoxyphenyl)-4-((3-methylphenyl)-piperazin-1-yl)pteridine]  400 nM
10. COc1ccc(-c2cnc3nc(N)nc(N4CCN(C(=O)c5ccoc5)CC4)c3n2)cc1OC [Example 47, 2-amino-4-[N-(3-furoylcarbonyl)-piperazin-1-yl]-6-(3,4-dimethoxyphenyl)pteridine]  300 nM
11. COc1ccc(-c2cnc3nc(N)nc(N4CCN(C(=O)Nc5ccc(Br)cc5)CC4)c3n2)cc1OC [Example 196, 2-amino-4-(N-4-bromo-phenyl-carbamoyl-piperazin-1-yl)-6-(3,4-dimethoxyphenyl)pteridine]  100 nM
12. COc1ccc(-c2cnc3nc(N)nc(N4CCN(C(=O)Nc5ccc(C(F)(F)F)cc5)CC4)c3n2)cc1OC [Example 194, 2-amino-4-(N-4-trifluoromethyl-phenyl-carbamoyl-piperazin-1-yl)-6-(3,4-dimethoxyphenyl)pteridine]  52 nM
13. COc1ccc(-c2cnc3nc(N)nc(N4CCN(C(=O)Nc5cccc(I)c5)CC4)c3n2)cc1OC [Example 197, 2-amino-4-(N-3-iodo-phenyl-carbamoyl-piperazin-1-yl)-6-(3,4-dimethoxyphenyl)pteridine]  40 nM
14. COc1ccc(-c2cnc3nc(N)nc(N4CCN(C(=O)NCc5ccccc5)CC4)c3n2)cc1OC [Example 104, 2-amino-4-(N-benzylcarbamoyl-piperazin-1-yl)-6-(3,4-dimethoxyphenyl)pteridine]  18 nM
